Assay results published in ChEMBL document CHEMBL5584240, “Evaluation of potency and metabolic stability of diphyllin-derived Vacuolar-ATPase inhibitors” (Eur J Med Chem, 2024).
pEC50: −log10 of the molar value. The source made the active and inactive calls. The calls are words filed in the database; no cut-off is given here.

How the values were obtained:
[1] = Selectivity index, ratio of CC50 for HEK293 cells to EC50 for recombinant Ebola virus Mayinga expressing GFP infected in human HeLa cells with ATP6V0a2 KO; format: toxicity, cell-based; conditions: read-out: Ratio CC50/EC50
A549 [2] = assay: Induction of phospholipidosis in NBD-PE-treated human A549 cells at 1 uM incubated for 24 hrs by imaging based analysis; format: functional, cell-based
[3] = Selectivity index, ratio of CC50 for human primary macrophages to EC50 for recombinant Ebola virus Mayinga expressing GFP infected in human primary macrophages; format: toxicity; conditions: read-out: Ratio CC50/EC50
[4] = target: Voltage-gated inwardly rectifying potassium channel KCNH2 (Homo sapiens, UniProt Q12809); assay: Inhibition of hERG at 10 uM relative to control; format: toxicity
HEK293 = assay: Cytotoxicity against HEK293 cells incubated for 72 hrs by MTT assay; format: toxicity, cell-based; conditions: human, hek293, 72 h
Ebolavirus [5] = assay: Antiviral activity against recombinant Ebola virus Mayinga expressing GFP infected in human HeLa cells with ATP6V0a2 KO assessed as reduction in viral entry into cells pretreated for 1 hr followed by viral infection measured after 24 to 48 hrs by imaging analysis; format: functional, organism-based; conditions: Orthoebolavirus
Ebolavirus [6] = assay: Antiviral activity against recombinant Ebola virus Mayinga expressing GFP infected in human primary macrophages assessed as reduction in infectivity pretreated for 1 hr followed by viral infection measured after 24 to 48 hrs by imaging analysis; format: functional, organism-based; conditions: Orthoebolavirus, Primary macrophage
[7] = AUC (0.25 to 24 hrs) in CD-1 mouse at 50 mg/kg, po by LC-MS/MS analysis; format: ADME, organism-based; conditions: in vivo
[8] = AUC (infinity) in CD-1 mouse at 50 mg/kg, po by LC-MS/MS analysis; format: ADME, organism-based; conditions: in vivo
[9] = Cmax in CD-1 mouse at 50 mg/kg, po by LC-MS/MS analysis; format: ADME, organism-based; conditions: in vivo
[10] = Half life in CD-1 mouse at 50 mg/kg, po by LC-MS/MS analysis; format: ADME, organism-based; conditions: in vivo
[11] = MRT in CD-1 mouse at 50 mg/kg, po by LC-MS/MS analysis; format: ADME, organism-based; conditions: in vivo
[12] = Apparent oral clearance in CD-1 mouse at 50 mg/kg, po by LC-MS/MS analysis; format: ADME, organism-based; conditions: in vivo
[13] = Apparent volume of distribution during terminal phase in CD-1 mouse at 50 mg/kg, po by LC-MS/MS analysis; format: ADME, organism-based; conditions: in vivo, read-out: Vz/F
[14] = Tmax in CD-1 mouse at 50 mg/kg, po by LC-MS/MS analysis; format: ADME, organism-based; conditions: in vivo
A549 [15] = assay: Induction of phospholipidosis in NBD-PE-treated human A549 cells at 5 to 10 uM incubated for 24 hrs by imaging based analysis; format: functional, cell-based; conditions: dose 5-10 µM

Voltage-gated inwardly rectifying potassium channel KCNH2, sequence (Q12809 whole entry): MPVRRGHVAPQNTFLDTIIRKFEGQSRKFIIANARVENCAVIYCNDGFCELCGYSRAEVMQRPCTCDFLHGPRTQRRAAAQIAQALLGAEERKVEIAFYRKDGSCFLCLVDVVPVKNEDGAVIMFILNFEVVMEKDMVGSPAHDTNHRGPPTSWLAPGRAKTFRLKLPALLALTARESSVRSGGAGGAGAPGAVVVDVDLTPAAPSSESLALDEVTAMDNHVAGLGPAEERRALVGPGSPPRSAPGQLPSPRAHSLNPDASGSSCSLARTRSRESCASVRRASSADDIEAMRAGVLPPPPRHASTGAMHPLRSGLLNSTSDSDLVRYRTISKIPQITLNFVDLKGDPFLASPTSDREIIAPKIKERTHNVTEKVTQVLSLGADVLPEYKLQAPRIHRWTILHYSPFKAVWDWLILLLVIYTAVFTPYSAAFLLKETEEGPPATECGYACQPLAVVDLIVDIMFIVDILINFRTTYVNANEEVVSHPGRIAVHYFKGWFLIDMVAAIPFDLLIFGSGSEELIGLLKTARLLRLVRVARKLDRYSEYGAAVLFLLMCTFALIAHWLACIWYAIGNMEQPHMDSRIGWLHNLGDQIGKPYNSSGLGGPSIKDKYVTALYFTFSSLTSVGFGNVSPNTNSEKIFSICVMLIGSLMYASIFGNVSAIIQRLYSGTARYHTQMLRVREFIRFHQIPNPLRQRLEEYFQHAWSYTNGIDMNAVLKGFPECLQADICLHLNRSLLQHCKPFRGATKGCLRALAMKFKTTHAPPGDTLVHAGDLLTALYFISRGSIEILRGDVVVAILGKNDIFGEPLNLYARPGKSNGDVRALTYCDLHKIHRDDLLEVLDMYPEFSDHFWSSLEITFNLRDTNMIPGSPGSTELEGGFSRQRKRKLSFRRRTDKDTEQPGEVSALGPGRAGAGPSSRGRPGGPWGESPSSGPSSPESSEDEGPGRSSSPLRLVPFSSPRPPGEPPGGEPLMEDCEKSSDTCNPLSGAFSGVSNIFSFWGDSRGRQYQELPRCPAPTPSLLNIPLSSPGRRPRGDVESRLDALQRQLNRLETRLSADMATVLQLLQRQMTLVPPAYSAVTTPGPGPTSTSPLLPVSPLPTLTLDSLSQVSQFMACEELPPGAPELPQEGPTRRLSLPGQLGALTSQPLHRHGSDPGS

SMILES	selectivity ratio [1]	inhibition (INH) [4] [%]	CC50 (HEK293) [µM]	pEC50 (Ebolavirus [5])	also measured
COc1cc2c(OCCCN3CCS(=O)(=O)CC3)c3c(c(-c4ccc5c(c4)OCO5)c2cc1OC)C(=O)OC3	> 240	21	> 80	6.93	Activity (A549 [2]): inactive; selectivity ratio [3]: 138; pEC50 (Ebolavirus [6]): 6.74
COc1cc2c(OCCCN3CCN(C(C)=O)CC3)c3c(c(-c4ccc5c(c4)OCO5)c2cc1OC)C(=O)OC3	> 590	11	> 80	7.38	
COc1cc2c(OCCCN3CC4CC3CN4C)c3c(c(-c4ccc5c(c4)OCO5)c2cc1OC)C(=O)OC3 (stereo unspecified)	> 210	72	> 80	6.94	
COCCN1CCN(CC(O)COc2c3c(c(-c4ccc5c(c4)OCO5)c4cc(OC)c(OC)cc24)C(=O)OC3)CC1 (stereo unspecified)	> 580	51		7.36	
COc1cc2c(OCCCC#N)c3c(c(-c4ccc5c(c4)OCO5)c2cc1OC)C(=O)OC3	130	24	> 80	7.43	AUC(0-t) [7]: 6.86 µM·h; AUC [8]: 7.191 µM·h; Cmax [9]: 3.56 µM; t1/2 [10]: 6.4 h; MRT [11]: 5.9 h; CL/F [12]: 5.18 mL/min; Vd/F [13]: 2.85 L; Tmax [14]: 0.5 h
COc1cc2c(OCCCN3CCN(C=O)CC3)c3c(c(-c4ccc5c(c4)OCO5)c2cc1OC)C(=O)OC3	> 610	34	> 80	7.51	
COc1cc2c(OCCCN3CCN(S(C)(=O)=O)CC3)c3c(c(-c4ccc5c(c4)OCO5)c2cc1OC)C(=O)OC3	> 550	16	> 80	7.46	
COc1cc2c(OC3CCNC3)c3c(c(-c4ccc5c(c4)OCO5)c2cc1OC)C(=O)OC3 (stereo unspecified)	300	97	> 80	7.07	
COc1cc2c(OCC(O)CN3CC4CCC(C3)N4C)c3c(c(-c4ccc5c(c4)OCO5)c2cc1OC)C(=O)OC3 (stereo unspecified)	2000	99	> 80	8.15	
CO/C1=C\C(C)=C\[C@@H](C)[C@@H](O)[C@@H](C)C/C(C)=C/C=C/[C@H](OC)[C@@H]([C@@H](C)[C@@H](O)[C@H](C)[C@@]2(O)C[C@@H](O)[C@H](C)[C@@H](C(C)C)O2)OC1=O [BAFILOMYCIN A1]	470		37	8.52	
COc1cc2c(OCCCN3[C@@H]4CC[C@H]3COC4)c3c(c(-c4ccc5c(c4)OCO5)c2cc1OC)C(=O)OC3	> 190	76	> 80	6.84	
COc1cc2c(OC3CCNCC3)c3c(c(-c4ccc5c(c4)OCO5)c2cc1OC)C(=O)OC3	510	80	> 80	7.49	AUC(0-t) [7]: 0.636 µM·h; AUC [8]: 2.532 µM·h; Cmax [9]: 0.151 µM; t1/2 [10]: 86.2 h; MRT [11]: 113 h; CL/F [12]: 14.1 mL/min; Vd/F [13]: 105 L; Tmax [14]: 2 h
COc1cc2c(OC3COC3)c3c(c(-c4ccc5c(c4)OCO5)c2cc1OC)C(=O)OC3	> 79	15	72	6.50	
COc1cc2c(OCCN3CCN(C)CC3)c3c(c(-c4ccc5c(c4)OCO5)c2cc1OC)C(=O)OC3	300	79	> 80	7.44	selectivity ratio [3]: 170; pEC50 (Ebolavirus [6]): 7.52
COc1cc2c(OCCCN3CCN(C)CC3)c3c(c(-c4ccc5c(c4)OCO5)c2cc1OC)C(=O)OC3	> 630	75	12	8.15	
CCCCc1oc2ccccc2c1C(=O)c1cc(I)c(OCCN(CC)CC)c(I)c1					Activity (A549 [15]): Active
COc1cc2c(OC3CNC3)c3c(c(-c4ccc5c(c4)OCO5)c2cc1OC)C(=O)OC3	> 150	89	> 80	6.67	
COc1cc2c(OCCN3CCOCC3)c3c(c(-c4ccc5c(c4)OCO5)c2cc1OC)C(=O)OC3	> 38		> 80	6.19	

SMILES	selectivity ratio [1]	inhibition (INH) [4] [%]	CC50 (HEK293) [µM]	pEC50 (Ebolavirus [5])	also measured
COC(=O)N1CCN(CC(O)COc2c3c(c(-c4ccc5c(c4)OCO5)c4cc(OC)c(OC)cc24)C(=O)OC3)CC1 (stereo unspecified)	> 740	23	> 80	7.39	
COC(=O)N1CCN(CCCOc2c3c(c(-c4ccc5c(c4)OCO5)c4cc(OC)c(OC)cc24)C(=O)OC3)CC1	> 110	30	> 80	7.66	
COc1cc2c(OCC(O)CN3CCOCC3)c3c(c(-c4ccc5c(c4)OCO5)c2cc1OC)C(=O)OC3 (stereo unspecified)	> 160	16	> 80	6.80	
COc1cc2c(OCCCN3CC4CCC3CO4)c3c(c(-c4ccc5c(c4)OCO5)c2cc1OC)C(=O)OC3 (stereo unspecified)	> 1200	54	80	7.55	selectivity ratio [3]: 319; pEC50 (Ebolavirus [6]): 7.72
COc1cc2c(OCCCN3CC4CCC(C3)N4C)c3c(c(-c4ccc5c(c4)OCO5)c2cc1OC)C(=O)OC3	> 3400	100	> 80	8.00	selectivity ratio [3]: 577; pEC50 (Ebolavirus [6]): 8.00
COc1cc2c(OC3CCOC3)c3c(c(-c4ccc5c(c4)OCO5)c2cc1OC)C(=O)OC3 (stereo unspecified)	87	30	> 80	7.40	AUC(0-t) [7]: 12 µM·h; AUC [8]: 16.455 µM·h; selectivity ratio [3]: 132; Cmax [9]: 1.25 µM; t1/2 [10]: 13.5 h; MRT [11]: 18 h; CL/F [12]: 2.25 mL/min; Vd/F [13]: 2.63 L; Tmax [14]: 0.5 h; pEC50 (Ebolavirus [6]): 6.97
COc1cc2c(OCCCN3CCOCC3)c3c(c(-c4ccc5c(c4)OCO5)c2cc1OC)C(=O)OC3	> 230	11	> 80	7.02	
COc1cc2c(OC3CCOCC3)c3c(c(-c4ccc5c(c4)OCO5)c2cc1OC)C(=O)OC3	43	36	> 80	6.91	
COc1cc2c(OCCCN3CC4CCC3CN4C)c3c(c(-c4ccc5c(c4)OCO5)c2cc1OC)C(=O)OC3 (stereo unspecified)	> 1020	90	54	7.59	selectivity ratio [3]: 3240; pEC50 (Ebolavirus [6]): 8.70
COc1cc2c(OCCCN3CCNC(=O)C3)c3c(c(-c4ccc5c(c4)OCO5)c2cc1OC)C(=O)OC3		5	> 80	6.36	
COc1cc2c(OCCCN3[C@@H]4CC[C@H]3CN(C)C4)c3c(c(-c4ccc5c(c4)OCO5)c2cc1OC)C(=O)OC3	> 940	72	71	7.74	selectivity ratio [3]: 313; pEC50 (Ebolavirus [6]): 7.60
COc1cc2c(OCC#N)c3c(c(-c4ccc5c(c4)OCO5)c2cc1OC)C(=O)OC3	> 140	6	> 80	6.74	
COc1cc2c(OCCCN3CC4CC3CO4)c3c(c(-c4ccc5c(c4)OCO5)c2cc1OC)C(=O)OC3 (stereo unspecified)	> 660	73	52	7.32	
COc1cc2c(OCCCN3CC4CCC(C3)O4)c3c(c(-c4ccc5c(c4)OCO5)c2cc1OC)C(=O)OC3	> 190	22	> 80	6.90	
COc1cc2c(O[C@@H]3O[C@H](C)[C@@H](O)[C@H](O)[C@H]3O)c3c(c(-c4ccc5c(c4)OCO5)c2cc1OC)C(=O)OC3 [PATENTIFLORIN A]	> 59	< 5	> 80	6.37	selectivity ratio [3]: 295; Cmax [9]: 0.101 µM; Tmax [14]: 0.25 h; pEC50 (Ebolavirus [6]): 7.07
COc1cc2c(OCC(O)CN3CCN(C)CC3)c3c(c(-c4ccc5c(c4)OCO5)c2cc1OC)C(=O)OC3 (stereo unspecified)	> 420	36	> 80	7.27	selectivity ratio [3]: > 753; pEC50 (Ebolavirus [6]): 7.48
COc1cc2c(OCCCN3CCN(C)C(=O)C3)c3c(c(-c4ccc5c(c4)OCO5)c2cc1OC)C(=O)OC3	> 340	9	> 80	7.13	Activity (A549 [2]): inactive; selectivity ratio [3]: > 150; pEC50 (Ebolavirus [6]): 6.78
